Measured values: paper PMC11780470 (ACS Omega, 2025)

Target: Indole amine 2,3-dioxygenase 1 (IDO1) (Homo sapiens, UniProt P14902)
Experiment: IDO1 enzyme
Format: biochemical

Chain of Indole amine 2,3-dioxygenase 1 (IDO1) (P14902 whole entry): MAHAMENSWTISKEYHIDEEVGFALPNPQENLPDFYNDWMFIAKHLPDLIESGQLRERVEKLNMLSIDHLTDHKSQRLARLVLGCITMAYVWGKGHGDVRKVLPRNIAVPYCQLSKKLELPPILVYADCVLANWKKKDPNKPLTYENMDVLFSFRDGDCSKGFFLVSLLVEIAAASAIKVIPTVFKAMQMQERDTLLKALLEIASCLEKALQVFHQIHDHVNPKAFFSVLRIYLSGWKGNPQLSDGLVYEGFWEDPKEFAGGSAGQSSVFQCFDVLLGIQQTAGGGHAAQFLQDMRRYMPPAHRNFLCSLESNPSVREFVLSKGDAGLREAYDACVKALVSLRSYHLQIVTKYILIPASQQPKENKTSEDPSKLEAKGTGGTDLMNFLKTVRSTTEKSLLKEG

- IC50: 17.3 µM
Structure (SMILES): O=C1c2ccccc2-n2c1nc1ccccc1c2=O [TRYP, indolo [2,1-b]quinazoline-6,12-dione]
